{"source": "ChEMBL document CHEMBL1201862", "about": "“PubChem BioAssay data set” (2004)", "key": {"[1]": {"assay": "HEK293 cell cytotoxicity, dose response, cytotoxicity control, cherry-picks, set 5 (AID 1053117)", "type": "functional, cell-based"}, "[2]": {"assay": "inhibitors of fibronectin matrix deposition, dose response, AH1F cells, Alexa488-FN fluorescence, cherry-picks (AID 1035475)", "type": "functional, cell-based"}, "[3]": {"molecular_target": "Endoplasmic reticulum aminopeptidase 1 (Homo sapiens, UniProt Q9NZ08)", "sequence (Q9NZ08 whole entry)": "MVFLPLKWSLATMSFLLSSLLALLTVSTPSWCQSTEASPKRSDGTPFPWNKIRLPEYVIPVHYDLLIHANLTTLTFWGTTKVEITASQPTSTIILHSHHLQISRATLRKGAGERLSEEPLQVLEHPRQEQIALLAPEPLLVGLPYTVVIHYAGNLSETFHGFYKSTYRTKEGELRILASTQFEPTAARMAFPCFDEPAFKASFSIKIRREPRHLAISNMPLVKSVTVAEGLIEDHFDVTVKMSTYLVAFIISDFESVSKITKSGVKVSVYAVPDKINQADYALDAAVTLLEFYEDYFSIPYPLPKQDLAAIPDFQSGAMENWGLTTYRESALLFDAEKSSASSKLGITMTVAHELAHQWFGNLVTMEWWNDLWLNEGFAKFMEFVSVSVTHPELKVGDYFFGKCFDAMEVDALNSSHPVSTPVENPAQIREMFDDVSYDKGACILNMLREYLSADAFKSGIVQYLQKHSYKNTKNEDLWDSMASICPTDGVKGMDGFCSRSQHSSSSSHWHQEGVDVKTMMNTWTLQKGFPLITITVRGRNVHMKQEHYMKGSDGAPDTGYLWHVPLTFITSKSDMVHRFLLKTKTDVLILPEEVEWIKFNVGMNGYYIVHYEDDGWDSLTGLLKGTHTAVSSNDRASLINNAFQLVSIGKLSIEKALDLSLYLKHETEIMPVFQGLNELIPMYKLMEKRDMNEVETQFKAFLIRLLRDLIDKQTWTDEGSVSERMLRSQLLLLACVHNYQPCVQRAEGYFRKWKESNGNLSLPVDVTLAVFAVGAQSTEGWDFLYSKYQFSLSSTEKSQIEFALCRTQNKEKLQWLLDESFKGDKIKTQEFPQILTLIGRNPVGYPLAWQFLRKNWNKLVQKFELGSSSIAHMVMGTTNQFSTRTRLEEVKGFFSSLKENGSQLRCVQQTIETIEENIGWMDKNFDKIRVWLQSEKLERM", "assay": "ERAP1 aminopeptidase inhibitors, dose response, biochemical, cherry-pick, set 2, plate reader (AID 743314)"}, "[4]": {"assay": "CEM21 cell cytotoxicity, dose response, cytotoxicity control, plate reader, dry powder (AID 687026)", "type": "functional, cell-based"}, "[5]": {"molecular_target": "1-phosphatidylinositol 4,5-bisphosphate phosphodiesterase gamma-1 (Homo sapiens, UniProt P19174)", "sequence (P19174 whole entry)": "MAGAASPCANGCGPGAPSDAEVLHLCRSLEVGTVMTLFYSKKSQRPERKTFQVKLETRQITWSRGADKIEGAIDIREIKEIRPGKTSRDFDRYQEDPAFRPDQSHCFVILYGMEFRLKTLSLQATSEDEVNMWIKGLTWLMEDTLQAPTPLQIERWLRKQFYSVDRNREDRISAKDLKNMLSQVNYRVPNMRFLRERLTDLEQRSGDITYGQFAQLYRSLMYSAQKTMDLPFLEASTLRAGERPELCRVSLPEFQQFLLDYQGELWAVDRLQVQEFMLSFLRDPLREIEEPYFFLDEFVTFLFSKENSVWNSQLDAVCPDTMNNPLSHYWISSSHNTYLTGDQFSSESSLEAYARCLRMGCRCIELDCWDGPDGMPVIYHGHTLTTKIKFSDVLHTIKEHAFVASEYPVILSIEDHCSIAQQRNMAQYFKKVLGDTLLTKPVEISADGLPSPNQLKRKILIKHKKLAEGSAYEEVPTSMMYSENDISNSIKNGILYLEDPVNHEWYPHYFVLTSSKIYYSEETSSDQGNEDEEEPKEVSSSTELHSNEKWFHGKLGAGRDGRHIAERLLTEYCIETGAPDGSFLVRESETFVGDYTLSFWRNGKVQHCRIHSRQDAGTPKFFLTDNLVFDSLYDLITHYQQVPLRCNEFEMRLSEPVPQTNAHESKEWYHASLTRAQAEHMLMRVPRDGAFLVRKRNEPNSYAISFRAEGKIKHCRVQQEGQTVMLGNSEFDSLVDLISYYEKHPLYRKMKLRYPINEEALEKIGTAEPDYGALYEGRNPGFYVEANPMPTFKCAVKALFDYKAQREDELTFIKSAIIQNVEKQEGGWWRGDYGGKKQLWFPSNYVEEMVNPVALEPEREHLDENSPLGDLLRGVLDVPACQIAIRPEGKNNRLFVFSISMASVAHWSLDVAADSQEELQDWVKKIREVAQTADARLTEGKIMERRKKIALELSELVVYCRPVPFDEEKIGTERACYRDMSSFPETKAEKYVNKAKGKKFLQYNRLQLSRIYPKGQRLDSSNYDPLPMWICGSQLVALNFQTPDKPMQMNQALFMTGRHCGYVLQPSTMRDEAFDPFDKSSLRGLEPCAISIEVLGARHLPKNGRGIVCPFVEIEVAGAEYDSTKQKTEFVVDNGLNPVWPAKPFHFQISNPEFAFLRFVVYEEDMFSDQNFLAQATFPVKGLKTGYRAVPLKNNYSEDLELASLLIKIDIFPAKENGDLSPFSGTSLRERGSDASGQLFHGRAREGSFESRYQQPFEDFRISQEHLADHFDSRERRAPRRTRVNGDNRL", "assay": "Counterscreen for inhibitors of phospholipase C isozymes (PLC-B3): Fluorescence-based biochemical high throughput dose response assay to identify inhibitors of phospholipase C isozymes (PLC-gamma1)."}, "[6]": {"molecular_target": "1-phosphatidylinositol 4,5-bisphosphate phosphodiesterase beta-3 (Homo sapiens, UniProt Q01970)", "sequence (Q01970 whole entry)": "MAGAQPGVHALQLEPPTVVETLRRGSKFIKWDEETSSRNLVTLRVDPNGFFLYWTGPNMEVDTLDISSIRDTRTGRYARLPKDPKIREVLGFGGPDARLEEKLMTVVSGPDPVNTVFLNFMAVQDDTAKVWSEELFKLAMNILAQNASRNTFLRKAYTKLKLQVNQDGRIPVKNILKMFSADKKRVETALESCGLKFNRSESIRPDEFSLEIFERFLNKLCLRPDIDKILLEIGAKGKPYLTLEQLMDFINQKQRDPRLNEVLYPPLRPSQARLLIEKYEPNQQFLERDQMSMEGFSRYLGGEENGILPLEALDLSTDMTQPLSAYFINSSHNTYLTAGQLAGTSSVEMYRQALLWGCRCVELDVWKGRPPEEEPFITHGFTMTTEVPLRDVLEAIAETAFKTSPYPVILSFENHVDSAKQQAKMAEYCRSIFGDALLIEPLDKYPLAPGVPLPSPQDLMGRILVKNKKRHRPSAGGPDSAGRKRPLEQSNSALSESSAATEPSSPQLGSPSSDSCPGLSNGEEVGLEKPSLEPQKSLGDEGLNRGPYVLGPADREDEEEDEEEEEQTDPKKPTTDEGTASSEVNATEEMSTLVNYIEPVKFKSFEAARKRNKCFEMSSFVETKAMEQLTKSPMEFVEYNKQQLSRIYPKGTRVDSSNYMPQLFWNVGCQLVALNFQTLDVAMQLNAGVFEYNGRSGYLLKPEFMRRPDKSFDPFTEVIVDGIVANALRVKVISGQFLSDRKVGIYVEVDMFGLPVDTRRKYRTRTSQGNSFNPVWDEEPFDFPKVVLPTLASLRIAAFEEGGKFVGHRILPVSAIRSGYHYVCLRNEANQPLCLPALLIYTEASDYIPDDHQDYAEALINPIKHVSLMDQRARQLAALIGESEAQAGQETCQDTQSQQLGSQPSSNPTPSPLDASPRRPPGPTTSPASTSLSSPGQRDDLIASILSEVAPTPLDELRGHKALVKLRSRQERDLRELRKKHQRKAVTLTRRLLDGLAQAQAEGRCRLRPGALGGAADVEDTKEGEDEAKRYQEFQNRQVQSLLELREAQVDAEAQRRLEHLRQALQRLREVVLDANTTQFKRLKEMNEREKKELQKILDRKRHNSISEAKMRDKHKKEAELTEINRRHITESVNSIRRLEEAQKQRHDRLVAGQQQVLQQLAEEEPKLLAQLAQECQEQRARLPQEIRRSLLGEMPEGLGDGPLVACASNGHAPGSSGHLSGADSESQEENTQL", "assay": "Fluorescence-based biochemical high throughput dose response assay to identify inhibitors of phospholipase C isozymes (PLC-B3)."}, "[7]": {"molecular_target": "Disintegrin and metalloproteinase domain-containing protein 17 (Homo sapiens, UniProt P78536)", "sequence (P78536 whole entry, the tested form may be a part)": "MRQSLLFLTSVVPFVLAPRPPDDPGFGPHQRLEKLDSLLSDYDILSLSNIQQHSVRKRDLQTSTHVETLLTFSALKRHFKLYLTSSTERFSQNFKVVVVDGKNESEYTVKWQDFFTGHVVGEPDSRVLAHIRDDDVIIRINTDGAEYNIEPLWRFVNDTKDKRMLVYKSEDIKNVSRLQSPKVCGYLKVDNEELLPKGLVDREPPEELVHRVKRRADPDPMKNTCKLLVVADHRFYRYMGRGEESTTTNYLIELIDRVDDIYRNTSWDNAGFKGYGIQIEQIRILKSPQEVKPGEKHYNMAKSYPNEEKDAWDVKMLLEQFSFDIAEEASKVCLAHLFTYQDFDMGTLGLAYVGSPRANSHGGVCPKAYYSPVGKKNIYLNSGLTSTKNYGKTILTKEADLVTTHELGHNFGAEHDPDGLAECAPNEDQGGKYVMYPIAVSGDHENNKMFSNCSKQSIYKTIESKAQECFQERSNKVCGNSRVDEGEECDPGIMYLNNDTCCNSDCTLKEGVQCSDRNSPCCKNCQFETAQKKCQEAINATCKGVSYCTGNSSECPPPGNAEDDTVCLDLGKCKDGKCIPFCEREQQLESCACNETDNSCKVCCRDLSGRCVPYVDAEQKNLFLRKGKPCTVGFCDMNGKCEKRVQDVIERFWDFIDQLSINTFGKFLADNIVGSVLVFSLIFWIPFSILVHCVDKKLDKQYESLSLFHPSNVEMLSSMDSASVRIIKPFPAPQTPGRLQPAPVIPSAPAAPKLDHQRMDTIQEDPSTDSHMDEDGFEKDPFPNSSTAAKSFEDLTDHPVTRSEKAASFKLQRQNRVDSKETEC", "assay": "exosite inhibitors of ADAM17, dose response, biochemical (AID 743260)"}, "[8]": {"assay": "ADAM10 protease inhibitors, dose response, selectivity assay for ADAM17 exosite inhibitor project, biochemical, FRET peptide substrate, recombinant human ADAM10 (AID 743259);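 further: ADAM10 enzyme cleaving a FRET peptide substrate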"}}, "note": "Calls of active or inactive are those of the source.", "data": [{"smiles": "C[C@@H]1CN([C@@H](C)CO)C(=O)c2cc(NC(=O)C3CCCCC3)ccc2O[C@@H]1CN(C)Cc1ccc(-c2ccccc2)cc1", "values": [{"measurement": "AC50", "setting": "[1]", "result": "> 52 µM (inactive)"}, {"measurement": "AC50", "setting": "[2]", "result": "> 70 µM (inactive)"}]}, {"smiles": "Cc1cc(=O)oc2c(CN3CCCC3)c(O)ccc12", "values": [{"measurement": "AC50", "setting": "[3]", "result": "11.8 µM (active)"}]}, {"smiles": "CCOc1ccc(S(=O)(=O)NC(C)c2ccncc2)cc1", "note": "(stereo not drawn)", "values": [{"measurement": "AC50", "setting": "[4]", "result": "> 70 µM (inactive)"}]}, {"smiles": "COc1ccnc2c1c(=O)n(Cc1ccc(Cl)cc1Cl)c(=O)n2C", "values": [{"measurement": "IC50", "setting": "[5]", "result": "> 122 µM (inactive)"}, {"measurement": "IC50", "setting": "[6]", "result": "> 122 µM (inactive)"}]}, {"smiles": "Cc1ccc(C2=NS(=O)(=O)N(C)C(C(=O)Nc3ccc4c(c3)OCO4)=C2)cc1", "values": [{"measurement": "IC50", "setting": "[7]", "result": "> 69.5 µM (inactive)"}, {"measurement": "IC50", "setting": "[8]", "result": "19 µM (inactive)"}]}]}
